This note sets out measurements from PMC3799614, “Combinatorial Engineering of Dextransucrase Specificity” (PLoS ONE, 2013).

The test system of this experiment is T1, DSR-S vardel Δ4N (Thio-DSR-S vardel Δ4N-His).
T1 construct: gene dsrS; truncated form (variable region and part of C-terminal region deleted)
Nature of the experiment: initial velocity, released fructose by HPLC. The note with it: 50 mM sodium acetate pH 5.2, 0.05 g/L CaCl2, 25 °C; 10-600 mM sucrose; fit with substrate inhibition. Format: biochemical, Leuconostoc mesenteroides. An excerpt:
initial velocity, released fructose by HPLC on DSR-S vardel Δ4N (Thio-DSR-S vardel Δ4N-His)

Take `OC[C@H]1O[C@@](CO)(O[C@H]2O[C@H](CO)[C@@H](O)[C@H](O)[C@H]2O)[C@@H](O)[C@@H]1O` [sucrose]: the “Km” value worked out at 115.8 mM.
